# Assays:
# [1] = test system: cuttings from rose No. 1 (garden rose bush); test: Callus/root formation on cuttings from rose No. 1 in oxytocin solution; assay type: in vivo; conditions: for Grading of callus formation: grading 0-8
# Protocol: (§1) Cuttings, about 7 cm long, from the top of a branch of two different roses (rose No. 1 and rose No. 2) and cut directly under a node were put into 100 ml Erlenmeyer flasks with concentrations of oxytocin from 0 to 10 μM (0, 0.5, 1, 2.5, 5 and 10 μM) in tap water. Two cuttings were added to each Erlenmeyer flask. Thereafter, the Erlenmeyer flasks were placed in a growing room under a light intensity of 800 μmol*m^−2*s^−1.
# Cuttings in this experiment were taken from a garden rose bush. […] A grading of the effect of different oxytocin concentrations on the formation of callus from the cuttings can be seen in Table 1. Callus can easily be explained as an accumulation of cells that has not developed into any specific tissue, such as root tissues. Best coverage of callus on the cutting surface of the cuttings was obtained at a concentration of oxytocin of 2.5 μM (FIG. 1).
# [2] = test system: cuttings from rose No. 2 (mini rose); test: Callus/root formation on cuttings from rose No. 2 in oxytocin solution; assay type: in vivo; conditions: for Grading of callus formation: grading 0-8
# Protocol: as §1
# Cuttings in this experiment was taken from the small rose bushes in pot bought in a flower shop (mini rose), and put into Erlenmeyer flasks. […] Best effect was obtained at 10 μM oxytocin, followed closely by 2.5 μM oxytocin.
# Vigorous development of callus indicates high potential for root formation. To study this effect, the Erlenmeyer flasks with the cuttings from the experiment with rose No. 2 have been covered with aluminium foil.
# [3] = test system: cut flowers of roses of the variety Furiosa; test: Root growth of stalks of cut flowers of the variety Furiosa; assay type: in vivo, rose
# Protocol: Cut flowers of roses of the variety Furiosa, which had obtained at least 2 side shoots from the stalk, were put in water to allow the side shoots to continue to grow. When the side shoots had reached a length of about 5 cm, the stalk was cut by some mm under the lowest side shoot, which was also removed from the stalk. The stalks were then put into 100 ml Erlenmeyer flasks with either water alone or an oxytocin solution. The solution contained either 1, 4 or 8 μM oxytocin. The liquid in the Erlenmeyer flasks was darkened by coating the flasks with aluminium foil. The flasks were placed in daylight.
# cuttings from hibiscuses = test: Effect of oxytocin on cuttings of hibiscus; assay type: in vivo; conditions: 90 days
# Source text: […] Five cuttings per treatment were used.
# The flasks were covered with aluminum foil and the flasks were kept at room temperature in a window.
# The experiment was allowed to run for 90 days whereafter the development of calluses and roots was documented.
# rose cuttings = test: Effect of different concentrations of oxytocin on cuttings of roses (58 days); assay type: in vivo; conditions: for Total No. roots: 4 E-flasks with 2 cuttings; for Number of cuttings with roots / Number of living cuttings / Per cutting No. roots / Per cutting Number of side shoots >10 mm / Per cutting mm root / Vitality: n = 8; for Vitality: grading 0-5
# Protocol: On Feb. 11, 2020, cuttings from purchased pots with roses were put into 100 ml Erlenmeyer flasks (E-flasks) with a concentration of oxytocin from 0 to 50 μM (0, 0.5, 1, 5, 10, 20 and 50 μM). The experiment consisted of four E-flasks per concentration with two cuttings in each E-flask. The E-flasks were covered with aluminum foil and placed in a culture room. From day 45, measurements were made every 4-5 days. At day 58, the trial was interrupted.
# [4] = test system: potato tubers of the summer variety Perlo; test: Potato tubers treated with oxytocin before pre-sprouting in sunlight; assay type: in vivo; conditions: nineteen days of pre-sprouting
# Protocol: Potato tubers of the summer variety Perlo were pre-sprouting in sunlight after treatment with either tap water, 1 μM oxytocin or 10 μm oxytocin for 6 or 24 hours. For each treatment, 8 tubers were treated by placing them in plastic vessels and covered them with the respective test solution. After treatment, the tubers were pre-sprouted in sunlight at about 20° C. Nineteen days later, the number of sprouts were counted for each tuber and the length per sprout was measured.
# [5] = 5 μM oxytocin, 31 days, 2 cuttings
substance,measurement,setting,value
oxytocin,Grading of callus formation,"[1]; 0.5 μM oxytocin, 31 days, 2 cuttings",6
same,Grading of callus formation,"[1]; 1 μM oxytocin, 31 days, 2 cuttings",4
same,Grading of callus formation,"[1]; 2.5 μM oxytocin, 31 days, 2 cuttings",7
same,small roots formed,[1]; [5],one
same,Grading of callus formation,[1]; [5],6
same,length of root developed from callus,"[1]; 5 μM oxytocin, one of the two cuttings",2-3 mm
same,Grading of callus formation,"[1]; 10 μM oxytocin, 31 days, 2 cuttings",5
same,leaf aging,[1]; 5-10 μM oxytocin,inhibit leaf aging
same,concentration with best coverage of callus on the cutting surface,"[1]; 31 days, tested 0-10 μM",2.5 µM
same,Grading of callus formation,"[2]; 0.5 μM oxytocin, 24 days, 2 cuttings",2
same,root formation,"[2]; 0.5 μM oxytocin, nineteen days after day 24, flasks covered with aluminium foil",roots had been formed in all treatments except in 0.5 μM oxytocin
same,Grading of callus formation,"[2]; 1 μM oxytocin, 24 days, 2 cuttings",3
same,Grading of callus formation,"[2]; 2.5 μM oxytocin, 24 days, 2 cuttings",6
same,Grading of callus formation,"[2]; 5 μM oxytocin, 24 days, 2 cuttings",1
same,cuttings showing root development,"[2]; 5 μM oxytocin, nineteen days after day 24, 2 cuttings",one of the two cuttings
same,Grading of callus formation,"[2]; 10 μM oxytocin, 24 days, 2 cuttings",7
same,development of roots from cuttings,[2]; 1-10 μM oxytocin,stimulated the development of roots
same,root development,"[2]; 2.5 and 10 μM oxytocin, nineteen days after day 24",Root development was best
same,leaf aging,[2]; 5-10 μM oxytocin,inhibit leaf aging
same,concentration with best effect on development of callus,"[2]; 24 days, tested 0-10 μM",10 µM
same,root quality of stalk,"[3]; 1 μM oxytocin, one month after the 2.5 months",showed the best root
same,survival of stalks,"[3]; 4 μM oxytocin, one month after the 2.5 months, secondary fungal growth",had died due to a secondary fungal growth
same,root formation on stalks,"[3]; 1, 4 or 8 μM oxytocin, after about 2.5 months, untreated had died",obtained roots
same,root growth on stalks,"[3]; 1 and 8 μM oxytocin, one month after the 2.5 months",roots had grown much longer
same,Number of cuttings that had developed calluses,"cuttings from hibiscuses; 1 μM oxytocin, five cuttings",One
same,Number of cuttings that had developed a root,"cuttings from hibiscuses; 5 μM oxytocin, five cuttings",one
same,Number of cuttings that had developed calluses,"cuttings from hibiscuses; 5 μM oxytocin, five cuttings",One
same,root length,"cuttings from hibiscuses; 5 μM oxytocin, one cutting",~2 mm
same,Number of cuttings that had developed calluses,"cuttings from hibiscuses; 10 μM oxytocin, five cuttings",two
same,Root length Mean length,"rose cuttings; 0.5 μM oxytocin, 58 days",13.3 mm
same,Total No. roots,"rose cuttings; 0.5 μM oxytocin, 58 days",26
same,Number of cuttings with roots,"rose cuttings; 0.5 μM oxytocin, 58 days",5
same,Number of living cuttings,"rose cuttings; 0.5 μM oxytocin, 58 days",7
same,Per cutting No. roots,"rose cuttings; 0.5 μM oxytocin, 58 days",3.3
same,Per cutting Number of side shoots >10 mm,"rose cuttings; 0.5 μM oxytocin, 58 days",0.4
same,Per cutting mm root,"rose cuttings; 0.5 μM oxytocin, 58 days",43 mm
same,Vitality,"rose cuttings; 0.5 μM oxytocin, 58 days",2.6
same,Root length Mean length,"rose cuttings; 1 μM oxytocin, 58 days",17.4 mm
same,Total No. roots,"rose cuttings; 1 μM oxytocin, 58 days",55
same,Number of cuttings with roots,"rose cuttings; 1 μM oxytocin, 58 days",6
same,Number of living cuttings,"rose cuttings; 1 μM oxytocin, 58 days",8
same,Per cutting No. roots,"rose cuttings; 1 μM oxytocin, 58 days",6.9
same,Per cutting Number of side shoots >10 mm,"rose cuttings; 1 μM oxytocin, 58 days",1
same,Per cutting mm root,"rose cuttings; 1 μM oxytocin, 58 days",119 mm
same,Vitality,"rose cuttings; 1 μM oxytocin, 58 days",3.5
same,time after which all cuttings had developed roots,rose cuttings; 5 μM oxytocin,50 days
same,Root length Mean length,"rose cuttings; 5 μM oxytocin, 58 days",11.6 mm
same,Total No. roots,"rose cuttings; 5 μM oxytocin, 58 days",51
same,Number of cuttings with roots,"rose cuttings; 5 μM oxytocin, 58 days",7
same,Number of living cuttings,"rose cuttings; 5 μM oxytocin, 58 days",7
same,Per cutting No. roots,"rose cuttings; 5 μM oxytocin, 58 days",6.4
same,Per cutting Number of side shoots >10 mm,"rose cuttings; 5 μM oxytocin, 58 days",0.6
same,Per cutting mm root,"rose cuttings; 5 μM oxytocin, 58 days",76 mm
same,Vitality,"rose cuttings; 5 μM oxytocin, 58 days",2.5
same,cuttings that had developed roots,"rose cuttings; 5 μM oxytocin, day 45",five out of seven
same,"delay until all cuttings had roots, compared with 5 μM oxytocin",rose cuttings; 10 μM and 50 μM oxytocin,4 to 8 days
same,Root length Mean length,"rose cuttings; 10 μM oxytocin, 58 days",11.4 mm
same,Total No. roots,"rose cuttings; 10 μM oxytocin, 58 days",46
same,Number of cuttings with roots,"rose cuttings; 10 μM oxytocin, 58 days",7
same,Number of living cuttings,"rose cuttings; 10 μM oxytocin, 58 days",7
same,Per cutting No. roots,"rose cuttings; 10 μM oxytocin, 58 days",5.8
same,Per cutting Number of side shoots >10 mm,"rose cuttings; 10 μM oxytocin, 58 days",0.5
same,Per cutting mm root,"rose cuttings; 10 μM oxytocin, 58 days",66 mm
same,Vitality,"rose cuttings; 10 μM oxytocin, 58 days",2.9
same,Root length Mean length,"rose cuttings; 20 μM oxytocin, 58 days",12.7 mm
same,Total No. roots,"rose cuttings; 20 μM oxytocin, 58 days",46
same,Number of cuttings with roots,"rose cuttings; 20 μM oxytocin, 58 days",5
same,Number of living cuttings,"rose cuttings; 20 μM oxytocin, 58 days",6
same,Per cutting No. roots,"rose cuttings; 20 μM oxytocin, 58 days",5.8
same,Per cutting Number of side shoots >10 mm,"rose cuttings; 20 μM oxytocin, 58 days",0.5
same,Per cutting mm root,"rose cuttings; 20 μM oxytocin, 58 days",72 mm
same,Vitality,"rose cuttings; 20 μM oxytocin, 58 days",2.3
same,Root length Mean length,"rose cuttings; 50 μM oxytocin, 58 days",10.0 mm
same,Total No. roots,"rose cuttings; 50 μM oxytocin, 58 days",52
same,Number of cuttings with roots,"rose cuttings; 50 μM oxytocin, 58 days",8
same,Number of living cuttings,"rose cuttings; 50 μM oxytocin, 58 days",8
same,Per cutting No. roots,"rose cuttings; 50 μM oxytocin, 58 days",6.5
same,Per cutting Number of side shoots >10 mm,"rose cuttings; 50 μM oxytocin, 58 days",0.4
same,Per cutting mm root,"rose cuttings; 50 μM oxytocin, 58 days",65 mm
same,Vitality,"rose cuttings; 50 μM oxytocin, 58 days",3.5
same,cuttings that had developed callus,"rose cuttings; 50 μM oxytocin, day 45",all cuttings
same,cuttings that had calluses,"rose cuttings; 1, 5 and 10 μM oxytocin, day 45",all but one of the living cuttings
same,concentration giving most roots and longest total length of roots per cutting,rose cuttings; 6 cuttings per concentration (FIG. 7),1 µM
same,concentration most potent for callus and roots at nodes higher up on the stem,"rose cuttings; 58 days, tested 0-50 μM",20 µM
same,"total amount of roots formed, average over concentrations","rose cuttings; concentrations of 1 M and above, 58 days, compared to 30 at 0 μM",50.5 mm
same,percentage increase of long sprouts (over 5 mm) compared to tap water for 6 hours,[4]; 1 μM oxytocin for 6 hours,124%
same,percentage increase in number of shoots compared to tap water for 6 hours,[4]; 1 μM oxytocin for 24 hours,34.6%
same,percentage increase of long sprouts (over 5 mm) compared to tap water for 6 hours,[4]; 1 μM oxytocin for 24 hours,112.5%
same,percentage increase of long sprouts (over 5 mm) compared to tap water for 6 hours,[4]; 10 μM oxytocin for 6 hours,100%
same,percentage increase in number of shoots compared to tap water for 6 hours,[4]; 10 μM oxytocin for 24 hours,37.5%
